Laboratory results reported in patent US10822450B2, “Poly(glycerol sebacate)-interleukin inhibitor copolymers and methods of making and use” (THE SECANT GROUP, LLC, priority 2017, dated 2020).

Assay type: physicochemical
Conditions: pH 11
Protocol: A PGS-aspirin copolymer from Example 6 was thermoset by heating to 130° C. at a pressure of 10 Torr for 72 hours. Three thin cylindrical disks, each having a diameter of 10 mm, were punched out of the resultant thin film, which was about 1 mm thick.
Each disk was placed in 10 mL of 0.09 M phosphate-buffered saline (PBS) at a pH of 11 and a temperature of 37° C. for four weeks. At 1-week intervals, the solution was removed and tested for salicylic acid content by UV analysis at a wavelength of 303 nm and for pH. Each sample was rinsed three times with distilled water and vacuum dried prior to being placed in fresh PBS.

disk integrity during degradation: began to fall apart
Substance: PGS-aspirin copolymer [Example 8]
